Test [1] concerns MCF-7 (human breast adenocarcinoma). The test is described as follows: Cell proliferation MTT assay. Type of test: cell-based. The following applies: MCF7, 96 h, read-out: IC50, antiproliferative activity, MCF-7. As to the method:
Normal human skin fibroblasts (BJ), human hepatocellular carcinoma (HepG2) and human breast adenocarcinoma (MCF-7) were obtained from American Type Culture Collection (ATCC, England, UK). The cells were cultured in Eagle’s minimum essential medium (EMEM, ATCC) supplemented with 10 % fetal bovine serum (FBS, PAA Laboratories), 100 U/mL penicillin and 100 μg/mL streptomycin (Sigma-Aldrich). In the case of the MCF-7 cell line, the culture medium was additionally supplemented with 0.01 μg/mL of human recombinant insulin (Sigma-Aldrich). The cells were grown in 75-cm^2 flasks and maintained at 37 °C in a humidified atmosphere of 5 % CO2 and 95 % air.
In order to evaluate cell proliferation, the cells were seeded in flat-bottom 96-well plates in 100 μL of a complete growth medium at a concentration of 2 × 10^3 cells/well (BJ), 1.5 × 10^4 cells/well (HepG2) and 2.5 × 10^4 cells/well (MCF-7) and incubated for 24 h at 37 °C in a humidified atmosphere of 5 % CO2. Before drug exposure, the synthesized compounds (1–10) were dissolved in DMSO and then diluted in a complete culture medium supplemented with 10 % FBS. Subsequently, the growth medium was gently removed and the cells were exposed to 100 μL of serial dilutions of the investigated compounds at concentrations ranging from 0.05 to 200 μg/mL. Untreated cells were used as negative controls, and different concentrations of DMSO were used as the solvent control. After 96-h incubation at 37 °C in a humidified atmosphere of 5 % CO2, cell proliferation was assessed using the MTT test as described previously (Cytotoxicity assay). The MTT assay was repeated in three independent experiments in quadruplicates. The half-maximal inhibitory concentration (IC50) was defined as the compound concentration (μg/mL) required to inhibit cell proliferation to 50 %.
The results of the in vitro cell culture experiments were presented as mean values ± standard deviation (SD) or as mean values ± standard error of the mean (SEM). The data were analyzed using one-way ANOVA test followed by Dunnett’s test. Differences were considered as significant with p < 0.01 (GraphPad Prism 5, Version 5.04 Software). The values of CC50 and IC50 were calculated via 4-parameter nonlinear regression analyses using GraphPad Prism 5, version 5.04.

The subject of test [2] is Lactobacillus spp. The test is described as follows: Broth microdilution MIC. The format is cell-based. An excerpt: Panel reference strains of bacteria from the American Type Culture Collection or Polish Collection of Microorganisms, including aerobic Gram-positive bacteria: Staphylococcus aureus ATCC 25923 and Staphylococcus epidermidis ATCC 12228, and aerobic Gram-negative bacteria: Escherichia coli ATCC 25922 and Pseudomonas aeruginosa ATCC 9027, as well as microaerobic Gram-positive bacteria: Lactobacillus spp., Lactobacillus acidophilus PCM 2105, Streptococcus mutans PCM 2502 and Streptococcus sanguinis PCM 2335, were used. Microbial suspensions with an optical density of 0.5 McFarland standard at 1.5 × 10^8 CFU/mL (CFU: colony forming unit) were prepared in sterile 0.9 % NaCl. Mueller–Hinton (M–H) broth and M–H agar (Oxoid Ltd., England) for aerobic strains, and MRS Broth Lactobacillus, MRS Agar Lactobacillus (BioMaxima S.A., Poland), BHI Broth and BHI agar (BioMaxima S.A., Poland) for microaerobic strains were used in the microbial tests.
A broth microdilution method was used to evaluate the minimum inhibition concentration (MIC) according to the CLSI document (CLSI performance standards for antimicrobial susceptibility testing, 2008, Eighteenth International Supplement, CLSI document M7-MIC, Clinical Laboratory Standards Institute, Wayne) with some modifications. […] A serial doubling dilution of the compounds was prepared in 96-well plates (200 μL per well). A suitable medium (M-H Broth, MRS Broth Lactobacillus, BHI Broth) was used as a diluent. The final concentrations of derivatives were 1000–0.015 μg/mL. Finally, 2 μL of inoculum of the tested bacterial strain (1.5 × 10^8 CFU/mL) was added to each well. The tests were performed either at 36 °C for 18 h (aerobic strains) or at 40 h (microaerobic strains). After incubation, the panel was digitally analyzed at 600 nm using the microplate reader Bio Tech Synergy (USA) with a dedicated software system. The growth intensity in each well was compared with the negative and positive controls.

We go through 3 molecules from publication PMC4958397, “Synthesis, antibacterial and antiproliferative potential of some new 1-pyridinecarbonyl-4-substituted thiosemicarbazide derivatives” (Medicinal Chemistry Research, 2016).

Read-outs that look alike come from different tables or passages of the source.

For `O=C(NNC(=S)Nc1ccccc1Cl)c1ccccn1` [Compound 2, 4-(2-Chlorophenyl)-1-(pyridin-2-yl)carbonylthiosemicarbazide], the IC50 in test [1] (mean ± SD) was 14.8 ± 1.03 µg/mL.

Consider `O=C(NNC(=S)Nc1ccc(Cl)cc1Cl)c1ccccn1` [Compound 4, 4-(2,4-Dichlorophenyl)-1-(pyridin-2-yl)carbonylthiosemicarbazide], for which the MIC in test [2] (Lactobacillus, read-out: Minimum inhibitory concentration (MIC), Lactobacillus spp.) stood at 31.2 µg/mL. Also, the IC50 turned out to be 8.63 µg/mL in test [1] (mean ± SD) and 25.3 µM in test [1] (same value in µM).

For `CSc1ccc(NC(=S)NNC(=O)c2cccnc2)cc1` [Compound 6, 4-(4-Methylthiophenyl)-1-(pyridin-3-yl)carbonylthiosemicarbazide], the “Minimum inhibitory concentration (MIC), Lactobacillus spp.” value in test [2] was “did not limit the growth”.
